Records with an inconclusive call do not appear.
Tested on: nude mice, HT29 intrarenal xenograft, tumor weight T/C
Experiment: NCI In Vivo Anticancer Drug Screen. Data for tumor model HT29;CX-1 Human Adenocarcinoma (MER+) (intrarenal inoculation) in NU/NU Swiss (nude) mice
Conditions: endpoint: mean tumor weight change, higher = larger tumour
Method in brief: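 T/C = treated-group value ÷ vehicle-group value, using tumor size or survival.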

[1] = dose: 300.0 mg/kg/injection, schedule: Q04DX004 (sc), vehicle: saline with Tween-80

Nc1ccc(C(OC(=O)c2cc3ccccc3c(Cc3c(O)c(C(=O)OC(c4ccc(N)cc4)(c4ccc(N)cc4)c4ccc(N)cc4)cc4ccccc34)c2O)(c2ccc(N)cc2)c2ccc(N)cc2)cc1
T/C (dose: 36.0 mg/kg/injection, schedule: Q04DX004 (sc), vehicle: saline with Tween-80): 118 % of control | T/C (dose: 72.0 mg/kg/injection, schedule: Q04DX004 (sc), vehicle: saline with Tween-80): 70 % of control | T/C (dose: 144.0 mg/kg/injection, schedule: Q04DX004 (sc), vehicle: saline with Tween-80): 68 % of control | T/C (dose: 150.0 mg/kg/injection, schedule: Q04DX004 (sc), vehicle: saline with Tween-80): 94 % of control | T/C [1]: 55 % of control

C[C@]12CC[C@H]3[C@@H](CCC4=C[C@@H](OC5OCC(OC6OC(CO)C(O)C(O)C6O)C(O)C5O)CC[C@@]43C=O)[C@@]1(O)CCC2C1=CC(=O)OC1 (stereo not given in full)
T/C (dose: 3.75 mg/kg/injection, schedule: Q04DX004 (sc), vehicle: Klucel (hydroxypropylcellulose) (HPC)): 67 % of control | T/C (dose: 7.5 mg/kg/injection, schedule: Q04DX004 (sc), vehicle: Klucel (hydroxypropylcellulose) (HPC)): 97 % of control | T/C (dose: 15.0 mg/kg/injection, schedule: Q04DX004 (sc), vehicle: Klucel (hydroxypropylcellulose) (HPC)): 93 % of control | T/C (dose: 30.0 mg/kg/injection, schedule: Q04DX004 (sc), vehicle: Klucel (hydroxypropylcellulose) (HPC)): 110 % of control

O/N=C/c1ccccc1O.O/N=C/c1ccccc1O.[Cu]
T/C (dose: 25.0 mg/kg/injection, schedule: Q04DX004 (sc), vehicle: saline with Tween-80): 76 % of control | T/C (dose: 50.0 mg/kg/injection, schedule: Q04DX004 (sc), vehicle: saline with Tween-80): 39 % of control | T/C (dose: 100.0 mg/kg/injection, schedule: Q04DX004 (sc), vehicle: saline with Tween-80): 43 % of control | T/C (dose: 200.0 mg/kg/injection, schedule: Q04DX004 (sc), vehicle: saline with Tween-80): 61 % of control

C1CN1c1nc(N2CC2)nc(N2CC2)n1
T/C (dose: 0.25 mg/kg/injection, schedule: Q01DX010 (sc), vehicle: saline): 213 % of control

CCOC(=O)C1=C(C#N)C2(CCC(OCc3ccccc3)CC2)C(=O)O1 (stereo not given)
T/C (dose: 100.0 mg/kg/injection, schedule: Q04DX004 (sc), vehicle: suspension in saline): 91 % of control | T/C (dose: 800.0 mg/kg/injection, schedule: Q04DX004 (sc), vehicle: suspension in saline): 110 % of control

Cn1cc(C2NC(=O)c3ccccc3N2)c2ccccc21 (stereo not given)
T/C (dose: 300.0 mg/kg/injection, schedule: Q04DX004 (sc), vehicle: Klucel (hydroxypropylcellulose) (HPC)): 97 % of control | T/C (dose: 600.0 mg/kg/injection, schedule: Q04DX004 (sc), vehicle: Klucel (hydroxypropylcellulose) (HPC)): 116 % of control | T/C (dose: 1200.0 mg/kg/injection, schedule: Q04DX004 (sc), vehicle: Klucel (hydroxypropylcellulose) (HPC)): 60 % of control | T/C (dose: 2400.0 mg/kg/injection, schedule: Q04DX004 (sc), vehicle: Klucel (hydroxypropylcellulose) (HPC)): 94 % of control

CC(C)CCCCCCCCCCCCC(=O)NCC(=O)NC1C(C)OC(Nc2ncnc3nc[nH]c23)C(O)C1O (stereo not given)
T/C (dose: 2.0 mg/kg/injection, schedule: Q01DX010 (sc), vehicle: distilled water + Tween-80): -35 % of control | T/C (dose: 2.0 mg/kg/injection, schedule: Q01DX010 (sc), vehicle: saline with Tween-80): -6 % of control | T/C (dose: 4.0 mg/kg/injection, schedule: Q04DX004 (sc), vehicle: distilled water + Tween-80): 37 % of control | T/C (dose: 8.0 mg/kg/injection, schedule: Q01DX010 (sc), vehicle: distilled water + Tween-80): 20 % of control | T/C (dose: 8.0 mg/kg/injection, schedule: Q04DX004 (sc), vehicle: distilled water + Tween-80): 36 % of control | T/C (dose: 16.0 mg/kg/injection, schedule: Q01DX010 (sc), vehicle: saline with Tween-80): 23 % of control

O=c1[nH]cnc2[nH]ncc12
T/C (dose: 150.0 mg/kg/injection, schedule: Q04DX004 (sc), vehicle: suspension in saline): 33 % of control | T/C (dose: 300.0 mg/kg/injection, schedule: Q04DX004 (sc), vehicle: suspension in saline): 31 % of control | T/C (dose: 600.0 mg/kg/injection, schedule: Q04DX004 (sc), vehicle: suspension in saline): 21 % of control | T/C (dose: 1200.0 mg/kg/injection, schedule: Q04DX004 (sc), vehicle: suspension in saline): 31 % of control

COc1cc(C[C@H]2c3cc(OC)c(OC)cc3CCN2C)c(Oc2cc3c(cc2OC)-c2c(OC)c(OC)cc4c2[C@H](C3)N(C)CC4)cc1OC
T/C (dose: 100.0 mg/kg/injection, schedule: Q01DX010 (sc), vehicle: saline with Tween-80): 100 % of control | T/C (dose: 200.0 mg/kg/injection, schedule: Q01DX010 (sc), vehicle: saline with Tween-80): 45 % of control | T/C (dose: 400.0 mg/kg/injection, schedule: Q01DX010 (sc), vehicle: saline with Tween-80): 67 % of control | T/C (dose: 800.0 mg/kg/injection, schedule: Q01DX010 (sc), vehicle: saline with Tween-80): 63 % of control

CNC(=O)OCc1c(COC(=O)NC)c(C)n(-c2ccc(OC)cc2)c1C
T/C (dose: 50.0 mg/kg/injection, schedule: Q04DX004 (sc), vehicle: Klucel (hydroxypropylcellulose) (HPC)): 69 % of control | T/C (dose: 100.0 mg/kg/injection, schedule: Q04DX004 (sc), vehicle: Klucel (hydroxypropylcellulose) (HPC)): 90 % of control | T/C (dose: 200.0 mg/kg/injection, schedule: Q04DX004 (sc), vehicle: Klucel (hydroxypropylcellulose) (HPC)): 46 % of control | T/C (dose: 400.0 mg/kg/injection, schedule: Q04DX004 (sc), vehicle: Klucel (hydroxypropylcellulose) (HPC)): 36 % of control

O=C1C(NCCO)=C(N2CC2)C(=O)C(NCCO)=C1N1CC1
T/C (dose: 0.5 mg/kg/injection, schedule: Q04DX004 (sc), vehicle: saline): 76 % of control | T/C (dose: 1.0 mg/kg/injection, schedule: Q04DX004 (sc), vehicle: saline): 12 % of control | T/C (dose: 1.5 mg/kg/injection, schedule: Q04DX004 (sc), vehicle: saline): 86 % of control | T/C (dose: 2.0 mg/kg/injection, schedule: Q04DX004 (sc), vehicle: saline): 21 % of control | T/C (dose: 3.0 mg/kg/injection, schedule: Q04DX004 (sc), vehicle: saline): 82 % of control

CCC(CC)COC(=O)c1ccccc1C(=O)OCC(CC)CC
T/C [1]: 94 % of control | T/C (dose: 600.0 mg/kg/injection, schedule: Q04DX004 (sc), vehicle: saline with Tween-80): 53 % of control | T/C (dose: 1200.0 mg/kg/injection, schedule: Q04DX004 (sc), vehicle: saline with Tween-80): 81 % of control | T/C (dose: 2400.0 mg/kg/injection, schedule: Q04DX004 (sc), vehicle: saline with Tween-80): 71 % of control

CCCC(=O)O
T/C (dose: 100.0 mg/kg/injection, schedule: Q01DX010 (sc), vehicle: saline): 69 % of control | T/C (dose: 200.0 mg/kg/injection, schedule: Q01DX010 (sc), vehicle: saline): 65 % of control | T/C (dose: 400.0 mg/kg/injection, schedule: Q01DX010 (sc), vehicle: saline): 110 % of control | T/C (dose: 800.0 mg/kg/injection, schedule: Q01DX010 (sc), vehicle: saline): 79 % of control

O=C(O)C1CC(c2ccccc2)=NN1c1ccccc1 (stereo not given)
T/C (dose: 75.0 mg/kg/injection, schedule: Q04DX004 (sc), vehicle: water): 76 % of control | T/C (dose: 150.0 mg/kg/injection, schedule: Q04DX004 (sc), vehicle: water): 79 % of control | T/C (dose: 300.0 mg/kg/injection, schedule: Q04DX004 (sc), vehicle: water): 74 % of control

C=C1C(=O)OCC2C(C(=O)O)=CC3C(C)C(C)=CC123 (stereo not given)
T/C (dose: 12.5 mg/kg/injection, schedule: Q01DX010 (sc), vehicle: Klucel (hydroxypropylcellulose) (HPC)): 71 % of control | T/C (dose: 25.0 mg/kg/injection, schedule: Q01DX010 (sc), vehicle: Klucel (hydroxypropylcellulose) (HPC)): 94 % of control

CCCCCCCCCCCCCC#CC(=O)O
T/C (dose: 37.5 mg/kg/injection, schedule: Q04DX004 (sc), vehicle: saline with Tween-80): 117 % of control | T/C [1]: 104 % of control

CNc1nc2c(N)ncnc2n1C1OC(CO)C(O)C1O (stereo not given)
T/C (dose: 25.0 mg/kg/injection, schedule: Q04DX004 (sc), vehicle: saline): 87 % of control

NC(=O)NO
T/C (dose: 37.5 mg/kg/injection, schedule: Q04DX004 (sc), vehicle: saline): 75 % of control | T/C (dose: 75.0 mg/kg/injection, schedule: Q04DX004 (sc), vehicle: saline): 79 % of control | T/C (dose: 150.0 mg/kg/injection, schedule: Q04DX004 (sc), vehicle: saline): 75 % of control | T/C (dose: 300.0 mg/kg/injection, schedule: Q04DX004 (sc), vehicle: saline): 86 % of control

N#C[C@H](OC1OC(COC2OC(CO)C(O)C(O)C2O)C(O)C(O)C1O)c1ccccc1 (stereo not given in full)
T/C (dose: 450.0 mg/kg/injection, schedule: Q04DX004 (sc), vehicle: suspension in saline): 101 % of control | T/C (dose: 900.0 mg/kg/injection, schedule: Q04DX004 (sc), vehicle: suspension in saline): 67 % of control | T/C (dose: 1800.0 mg/kg/injection, schedule: Q04DX004 (sc), vehicle: suspension in saline): 56 % of control | T/C (dose: 3600.0 mg/kg/injection, schedule: Q04DX004 (sc), vehicle: suspension in saline): 69 % of control

CC(=O)Oc1ccccc1O
T/C (dose: 75.0 mg/kg/injection, schedule: Q04DX004 (sc), vehicle: saline + Tween-80 + alcohol): 79 % of control | T/C (dose: 150.0 mg/kg/injection, schedule: Q04DX004 (sc), vehicle: saline + Tween-80 + alcohol): 109 % of control | T/C (dose: 300.0 mg/kg/injection, schedule: Q04DX004 (sc), vehicle: saline + Tween-80 + alcohol): 119 % of control
